Key:
Format in all cases: binding
CC mismatched DNA [1] = assay: Isothermal titration calorimetry with CC mismatched DNA; details: 0.1 mM complex titrated by 0.75 mM DNA; 50 mM NaCl, 2 mM Tris, pH 7.5
Source text: ITC measures the heat absorbed or generated during a bi-molecular binding event. During ITC experiment of titrating known concentration of titrant (DNA molecules) to known quantity of titrate (Pt(II) complexes), Pt(II) complexes would bind onto the DNA molecules, generating incremental heat changes (in the unit of microcalories (μcal)). Through accurate measurement of the heat changes in each step of the titration and fitting the data by using a non-liner least square method, the best-fitted graph would yield the binding constant (K) of the bi-molecular interaction.
To determine the binding constant of Pt(II) complexes with CC mismatched DNA, 0.1 mM of Pt(II) complex in an aqueous buffer solution (50 mM NaCl, 2 mM Tris, pH 7.5) was titrated by 0.75 mM of DNA. Heat released from each step of titration had been recorded.

matched DNA [2] = assay: Isothermal titration calorimetry with matched DNA; details: 0.1 mM complex titrated by 0.75 mM DNA; 50 mM NaCl, 2 mM Tris, pH 7.5
CC mismatched DNA [3] = assay: Emission enhancement of complexes upon titration with CC mismatched DNA; details: complex 5 μM, DNA 10 μM; for increase in emission intensity in the presence of CC mismatched DNA: aqueous buffer 50 mM NaCl, 2 mM Tris, pH 7.5; for ratio of emission enhancement by CC mismatched DNA to that by matched DNA (ΔIcc/ΔImat): aqueous buffer pH 7.5
Experimental: (§1) FIGS. 1A and 1B are graphs showing the emission spectra of complex 5 (5 μM) in an aqueous buffer solution (50 mM NaCl, 2 mM Tris, pH 7.5) after binding to different concentrations of CC mismatched DNA (left) and well-matched DNA (right).
(§2) FIG. 4 is a graph showing the emission enhancement of different complexes (5 μM) towards CC mismatched DNA and matched DNA (10 μM). FIG. 5 is a graph showing the difference in emission enhancement between CC mismatched DNA and matched DNA by different complexes.

matched DNA [4] = assay: Emission enhancement of complexes upon titration with well-matched DNA; details: complex 5 μM, DNA 10 μM; aqueous buffer 50 mM NaCl, 2 mM Tris, pH 7.5
Experimental: as §1, §2
Upon addition of CC mismatch DNA, a growth of the emission band was observed, and a 27-fold increase in emission intensity was found when the concentration of CC mismatched DNA was twice as much as that of the concentration of complex 5 (FIGS. 1A and 1B). It is noteworthy that the emission enhancement of complex 5 towards CC mismatched DNA was around 7-fold more than that toward matched DNA (FIG. 2).

| SMILES | increase in emission intensity in the presence of CC mismatched DNA (CC mismatched DNA [3]) | increase in emission intensity in the presence of matched DNA (matched DNA [4]) | ratio of emission enhancement by CC mismatched DNA to that by matched DNA (ΔIcc/ΔImat) (CC mismatched DNA [3]) | further results |
| --- | --- | --- | --- | --- |
| CN1C=CN(C)[CH]1[Pt]12[c]3ccccc3-c3cccc([n+]31)-c1cccc[n+]12 (centres unmarked) [Complex 1] |  |  |  | difference in heat change between titration with CC mismatched DNA and matched DNA (ITC) (CC mismatched DNA [1]): no distinguishable difference in heat change |
| CCCCN1C=CN(Cc2ccccc2)[CH]1[Pt]12[c]3ccccc3-c3cccc([n+]31)-c1cccc[n+]12 (centres unmarked) [Complex 5] | 27 fold |  |  | binding constant (K) with CC mismatched DNA by ITC (CC mismatched DNA [1]): 1.18×10^4; heat change in the binding of matched DNA (ITC) (matched DNA [2]): no significant heat change |
| C1=CN(Cc2ccccc2)[CH]([Pt]23[c]4ccccc4-c4cccc([n+]42)-c2cccc[n+]23)N1Cc1ccccc1 (centres unmarked) [Complex 8] | small emission enhancements | small emission enhancements | smaller ratios of emission enhancement by CC mismatched DNA to the enhancement by matched DNA than complex 5 |  |
| OCCN1C=CN(Cc2ccccc2)[CH]1[Pt]12[c]3ccccc3-c3cccc([n+]31)-c1cccc[n+]12 (centres unmarked) [Complex 9] |  | strong emission enhancement | smaller ratios of emission enhancement by CC mismatched DNA to the enhancement by matched DNA than complex 5 |  |
| CCCCN1C=CN(Cc2ccc3ccccc3c2)[CH]1[Pt]12[c]3ccccc3-c3cccc([n+]31)-c1cccc[n+]12 (centres unmarked) [Complex 11] | no emission enhancement | no emission enhancement |  |  |
| CCCCN1C=CN(Cc2ccccc2)[CH]1[Pt]12[c]3ccccc3-c3cc(-c4ccccc4)cc([n+]31)-c1cccc[n+]12 (centres unmarked) [Complex 16] | no emission enhancement | no emission enhancement |  |  |
| C1=CN(CN2C=CN(Cc3ccccc3)[CH]2[Pt]23[c]4ccccc4-c4cccc([n+]42)-c2cccc[n+]23)[CH]([Pt]23[c]4ccccc4-c4cccc([n+]42)-c2cccc[n+]23)N1Cc1ccccc1 (centres unmarked) [Complex 21] |  |  | largest ΔIcc/ΔImat value |  |
